The source of these data is US5770688A, “Method and composition for the treatment of mammalian HIV infection” (GSF-Forschungszentrum fur Umwelt und Gesundheit GmbH, priority 1989, dated 1998).

Data set [1] in a line: disappearance of melittin from culture medium / uptake by cells. It is filed as in vitro ADME. The text has this:
This means, in essence, that the effect of melittin (Seq. ID NO:1) on the virus is to attack the virus before it is released from an infected cell although it is possible that a reduction in virus numbers may be possible during and immediately after the addition of melittin to a cell culture or otherwise. […] At this point in time, melittin is absent from the culture. […] This observation excludes any effect in the experiments to be explained by a direct effect of melittin on "cell free" virus, that is, virus released into the supernatant.
These characteristics appear to be due to the specific structure of the melittin amphiphilic helix. […] In this regard, treatment was at cultivation start, and measurement of infectivity was seven days post treatment. As was discussed earlier, maximum virus concentration in cultures of this type is not achieved for five days after cultivation. As should be understood and the conclusions which the inventors have drawn from same is that if the reduced viral infectivity seven days post treatment were only due to direct effects of melittin on the virus, then in that event, the melittin or an active fragment would have to be present as late as five days post treatment. […] Moreover, and if the reduction and supernatant infectivity was partly due to reduced virus production as opposed to incorrect virus assembly or destruction of newly synthesized virion, then, in that event, this should be reflected by reduced amounts of viral proteins within the cells and/or in their supernatants of the melittin treated cultures. To determine whether this hypothesis is correct the inventors chose the P24 marker as a marker for viral protein production. […] However, following fourteen hours of incubation with melittin, there is a marked reduction of P24 within the cells as well as in the supernatant (down to 60%).

The next data set has as its system Rauscher leukemia virus. Description: Example 2: Rauscher leukemia virus (RLV) model. It is filed as in vivo, Balb/c mice. An excerpt: As noted earlier, the Rauscher leukemia virus (RLV) model has been used successfully to test a number of compounds like nucleoside analogues, that is, AZT, and which has been utilized, heretofore, to inhibit HIV replication. This is discussed in further detail in the article authored by R. M. Ruprechet, et. al. and which is entitled Development of Antiviral Treatment Strategies in Murin Models, RES. Human Retroviruses, 8,997-1011 (1992). Those skilled in the art will recognized that RLV belongs to the Onkoviruses, which is a subfamily of the retrovirus family, and not to the Lentiviruses family, such as is the case with HIV. Therefore, the RLV model provides a suitable basis upon which one may test substances which interfere with the replication steps which are common, or similar, among related retroviruses. As noted earlier, inasmuch as the melittin (Seq. ID NO:1) appears to inhibit HIV transcription in vitro, then it appears that RLV is a suitable model to test the effect of melittin on in vivo replication inhibition.
The source of virus for the present example was secured from the leukemic spleens of RLV infected Balb/c mice. The virus titer of the pool of leukemic spleens was determined by titration. This titration method is discussed in the article authored by Schmidt et al., "Endogenous Murine Leukemia Viruses: frequency of radiation-activation and novel pathogenic effects of viral isolates." Leukemia Research 12, 393-403, (1988). The spleens were secured from 8 to 10 week old inbreed female Balb/c mice, and further from in mouse embryo fibroblasts. As noted earlier, virus replication in mice normally has been determined by the development of leukemia in the spleen. Additionally, the determination of in vitro virus replication has been measured heretofore by the number of virus protein producing cells which are stained with anti-RLV antibodies in an immuno-peroxidase staining test (IPF). Aliquots of the virus solutions were stored in liquid nitrogen and were again titrated in the fashion as noted above.
Stock virus solutions were diluted to provide solutions having a virus concentration of approximately 7×10^6 infectious units per milliliter. Following preparation of the solutions, 0.5 ml of these viral solutions were injected intraperitoneally (ip) into Balb/c mice that were 8 to 10 weeks old. […] As will be recognized by a study of FIG. 43 and FIG. 48, and following infection with the RLV, nearly 100% of the mice developed leukemia (splenomegaly) within approximately three weeks. […] The mean spleen weight development became less prominent. This is best seen by reference to FIG. 48 and in particular groups 8, 9 and 10.

Setting [2] is: all treated groups, regardless of schedule.
Where [3] appears, read: group 1, after infection, intervals of 4 days.
The mark [4] stands for this setting: group 2, after infection, intervals of 2 days.
Where [5] appears, read: group 3, after infection, daily.

Take “Gly-Ile-Gly-Ala-Val-Leu-Lys-Val-Leu-Thr-Thr-Gly-Leu-Pro-Ala-Leu-Ile-Ser-Trp-Ile-Lys-Arg-Lys-Arg-Gln-Gln-Amide [melittin]”: the “absorption by the cell” value in data set [1] (after introduction to the culture) was “absorbed by the cell within hours after introduction to the culture”. This substance showed a half-life of melittin in data set [1] (cell culture) of 19 h. Further, the “melittin in the medium” value in data set [1] (two hours after addition to the culture) is “not measurable in the medium two hours after addition to the culture”. In addition, the “animals that developed leukemia” value in the data set with Rauscher leukemia virus (setting [2]) is given as 70%. The mean spleen weight in the data set with Rauscher leukemia virus (setting [2]) amounted to 1.2 grams; with Rauscher leukemia virus (setting [3]), 1.1 grams; in the data set on Rauscher leukemia virus (setting [4]), 1.3 grams; in the data set with Rauscher leukemia virus (group 2, pre-treated, 5 injections, FIG. 45) it was 1.5 grams; with Rauscher leukemia virus (setting [5]) it was 1.1 grams; with Rauscher leukemia virus (group 3, pre-treated, 4 injections, FIG. 45) it was 1.5 grams. Further, the mean spleen weight in the data set on Rauscher leukemia virus (group 4, pre-treated, 3 injections, FIG. 45) was 1.3 grams; in the data set on Rauscher leukemia virus (group 5, once before infection and five times later in four day intervals), “approximately 1.3 grams”; in the data set with Rauscher leukemia virus (group 6, single injection 12 hours before infection), 1.1 grams; in the data set with Rauscher leukemia virus (group 7, single injection 24 hours before infection), 0.7 grams; in the data set with Rauscher leukemia virus (group 8, day 21), 1.2 grams; with Rauscher leukemia virus (group 8, single injection 6 hours before infection) it was 0.9 grams. In the data set with Rauscher leukemia virus (days 5 and 10, five administrations before and six after infection), the “spleen weights, treated vs untreated, in words” value was “quite similar with only a slight difference appearing on day 10”. Besides, the “leukemic animals, in words” value with Rauscher leukemia virus (days 5 and 15 (so in the source)) is “no leukemic animals could be found on days 5 and 15”. For the same substance, the figures for the leukemic animals in the data set with Rauscher leukemia virus (setting [3]), in the data set with Rauscher leukemia virus (setting [4]) and with Rauscher leukemia virus (setting [5]) were 4 out of 6, 5 out of 6 and 5 out of 6, respectively. Besides, the “number of leukemic animals” value with Rauscher leukemia virus (group 6, day 15, ten analyzed) is given as “one”. The “animals that develop leukemia” value in the data set on Rauscher leukemia virus (group 8, day 21) is given as 7 out of 10. Besides, in the data set on Rauscher leukemia virus (pre-treated animals, FIG. 45), the “development of leukemia, in words” value is given as “nearly all of the pre-treated animals also developed leukemia”.
